Test [1] concerns HAP1 cells. The test is described as follows: Survival assay (MTT), HAP1. The class given is cell-based, human. How it is done: (§1) Cells were incubated with the drugs for 72 hours.
Test [2] relates to H1573 cells. Kind of test: Survival assay (MTT), H1573. Format: cell-based. As to conditions: Homo sapiens, NCI-H1573. As to the method:
(§2) Cells were passed between 70 and 90% confluence.
as §1

Test [3] relates to H1437 cells. Kind of test: Survival assay (MTT), H1437. Format: cell-based. As to conditions: Homo sapiens, NCI-H1437. How it is done:
as §2, §1

In test [4] the test system is glioblastoma multiforme. As to conditions: glioblastoma multiforme patients; cited from earlier work.
Setting [5] is: Homo sapiens, HAP1, HAP1, Tables 6 and 7, unit inferred.

Results on 3 molecules are retold here after patent publication US12605397B2, “Deoxy-cytidine or uridine derivatives for use in cancer therapies” (HEMISPHERIAN AS, priority 2019, dated 2026).

SMILES strings stand for the structures.

For `Nc1nc(=O)n([C@H]2C[C@H](O)[C@@H](CO)O2)cc1CO` [2d5hmC, 5-hydroxymethyl-2′-deoxycytidine], the IC50 in test [1] (HAP1, Chronic Myelogenous Leukemia (CML), 72 hours, MTT) is more than 3.03 µM; in test [1] (setting [5]), 6.53 µM.

As to `Nc1nc(=O)n([C@H]2C[C@H](O)[C@@H](CO)O2)cc1C=O` [2d5fC, 5-formyl-2′-deoxycytidine], the IC50 is 7.72 µM in test [2] (H1573, Lung (metastatic adenocarcinoma), 72 hours, MTT); 7.72 µM in test [2] (H1573, Tables 6 and 7, unit inferred); 5.65 µM in test [3] (H1437, Lung (metastatic non-small cell adenocarcinoma), 72 hours, MTT); 5.65 µM in test [3] (H1437, Tables 6 and 7, unit inferred); more than 25 µM in test [1] (Homo sapiens, HAP1, 72 h, HAP1, Chronic Myelogenous Leukemia (CML), 72 hours, MTT); not below 25 µM in test [1] (setting [5]).

`Cn1nnc2c(C(N)=O)ncn2c1=O` [Temozolomide, 4-methyl-5-oxo-2,3,4,6,8-pentazabicyclo[4.3.0]nona-2,7,9-triene-9-carboxamide, reference compound]: the “improvement of overall survival” value in test [4] is 2.5 months.
